Tested on: enterobacterium
Assay: Stability against enterobacterium (feces / cecum homogenates)
Type: in vitro ADME
Conditions: cynomolgus monkey feces and rat cecum homogenates, 3 and 30 μM, 37° C., 24 hours; all conditions
Procedure: A culture medium was added to fresh feces of a cynomolgus monkey and rat cecum to prepare homogenates. To a homogenate was added the compound of the Example 2, or 1-{4-[5-(4-isopropoxyphenyl)-1,2,4-oxadiazol-3-yl]benzyl}azetidine-3-carboxylic acid (the compound of the Example 29 of Non-Patent Document 5) adjusted at a concentration of 3 and 30 μM, and the mixture was anaerobically cultured at 37° C. for 24 hours. After the cultivation, the concentration of the residual compound in the culture medium was measured on LC-MS.

`CC(C)Oc1ccc(-c2cnc(-c3ccc(CN4CC(C(=O)O)C4)cc3)s2)cc1` [Example 2, 1-(4-(5-(4-isopropoxyphenyl)thiazol-2-yl)benzyl)azetidine-3-carboxylic acid] was tested, and the “residual compound after anaerobic culture with homogenate” value was “remained almost completely intact”.
